Laboratory results as given in patent US5859036A, “3,4-diarylthiazolin-2-one or -2-thione derivatives, their methods of preparation and their uses in their methods of preparation and their uses in therapeutics” (Laboratories UPSA, priority 1997, dated 1999).

Columns and labels:
[1] = molecular target: T1, COX-2 (Ovis aries, UniProt P79208); assay: Inhibition of COX-2 enzymatic activity (purified enzyme from ewe placenta, PGE2 by EIA); format: biochemical; settings: for IC50: 1 U COX-2, 10 min preincubation at 25° C., 4 μM arachidonic acid, 5 min, n=1 to 4; for Selectivity COX-1/COX-2 ratio: ratio of IC50 COX-1 / IC50 COX-2
T1 construct: purified enzyme from ewe placenta; from tissue; host or cells: ewe placenta
T1 sequence (P79208 17-603): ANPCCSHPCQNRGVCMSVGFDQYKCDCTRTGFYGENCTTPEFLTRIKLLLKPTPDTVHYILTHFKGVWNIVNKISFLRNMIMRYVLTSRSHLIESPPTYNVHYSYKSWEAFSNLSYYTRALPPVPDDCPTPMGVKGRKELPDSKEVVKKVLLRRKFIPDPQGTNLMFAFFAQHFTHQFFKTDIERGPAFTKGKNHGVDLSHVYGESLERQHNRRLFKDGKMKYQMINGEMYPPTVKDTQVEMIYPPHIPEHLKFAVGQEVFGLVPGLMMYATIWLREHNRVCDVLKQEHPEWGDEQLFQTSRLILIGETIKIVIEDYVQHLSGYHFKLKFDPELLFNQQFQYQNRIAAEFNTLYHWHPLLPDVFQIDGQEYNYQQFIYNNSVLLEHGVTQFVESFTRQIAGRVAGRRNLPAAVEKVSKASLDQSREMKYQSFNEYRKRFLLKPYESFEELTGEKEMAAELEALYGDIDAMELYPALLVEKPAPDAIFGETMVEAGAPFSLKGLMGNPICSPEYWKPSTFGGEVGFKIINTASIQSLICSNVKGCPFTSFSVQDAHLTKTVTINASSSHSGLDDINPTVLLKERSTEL
Procedure: (§1) Inhibition of the COX-1 and COX-2 enzymatic activities The molecule studied is preincubated for 10 minutes at 25° C. with 2 U of COX-1 (purified enzyme from ram seminal vesicles) or 1 U of COX-2 (purified enzyme from ewe placenta). Arachidonic acid (6 μM for COX-1,4 μM for COX-2) is added to the reaction medium and incubation is carried out for 5 minutes at 25° C. When incubation has ended, the enzymatic reaction is stopped by the addition of 1 N HCl and the PGE2 produced is determined by EIA. The results are expressed in the form of IC50, concentration in […] corresponding to 50% inhibition of the maximal enzymatic activity upon COX-1 and COX-2 (n=1 to 4 determinations).

[2] = molecular target: T2, COX-1 (Ovis aries, UniProt P05979); assay: Inhibition of COX-1 enzymatic activity (purified enzyme from ram seminal vesicles, PGE2 by EIA); format: biochemical; settings: 2 U COX-1, 10 min preincubation at 25° C., 6 μM arachidonic acid, 5 min; n=1 to 4
T2 construct: purified enzyme from ram seminal vesicles; from tissue; host or cells: ram seminal vesicles
T2 sequence (P05979 25-600): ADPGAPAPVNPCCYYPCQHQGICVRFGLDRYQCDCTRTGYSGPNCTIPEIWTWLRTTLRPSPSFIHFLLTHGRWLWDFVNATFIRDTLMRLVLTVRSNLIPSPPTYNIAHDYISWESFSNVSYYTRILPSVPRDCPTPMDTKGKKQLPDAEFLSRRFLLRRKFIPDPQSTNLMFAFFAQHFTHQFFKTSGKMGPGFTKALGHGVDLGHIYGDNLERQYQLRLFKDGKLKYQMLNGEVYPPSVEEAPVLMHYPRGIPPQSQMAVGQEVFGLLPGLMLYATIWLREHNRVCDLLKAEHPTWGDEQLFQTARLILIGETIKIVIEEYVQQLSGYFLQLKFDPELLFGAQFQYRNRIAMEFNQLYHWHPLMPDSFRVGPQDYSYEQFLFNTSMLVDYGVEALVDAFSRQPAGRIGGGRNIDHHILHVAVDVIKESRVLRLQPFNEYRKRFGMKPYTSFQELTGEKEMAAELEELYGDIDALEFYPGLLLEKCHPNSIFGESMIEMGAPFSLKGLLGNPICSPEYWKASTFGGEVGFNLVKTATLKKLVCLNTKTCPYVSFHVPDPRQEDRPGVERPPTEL
Procedure: as §1

[3] = Anti-inflammatory activity, test of oedema with carrageenan in rats; format: in vivo; settings: rat, oral, product 1 h before plantar injection of 2% carrageenan; dose inducing 50% of the maximal decrease of oedema volume; read-out: Anti-inflammatory Activity ID50
Procedure: (§2) The anti-inflammatory activity of the compounds of the Examples has been evaluated according to the method of oedema with carrageenan and the analgesic activity has been evaluated according to the method of arthritis with kaolin.
Anti-inflammatory activity:
The anti-inflammatory activity is evaluated in rats by the test of oedema with carrageenan. The product is administered orally at a rate of 2.5 ml/100 g (n=6 animals per dose) 2 hours 30 minutes after a water overload taken orally (2.5 ml/100 g). One hour after administration of the product, the oedema is induced by plantar subcutaneous injection of aqueous 2% carrageenan solution. The results are expressed as ID50, dose in mg/kg, calculated by linear regression, which induces 50% of the maximal decrease of the volume of the oedema obtained from each product tested.

[4] = Analgesic activity, test of arthritis with kaolin in rats; format: in vivo; settings: 0.5 h; rat, oral, 30 min after intra-articular 10% kaolin; dose inducing 50% decrease of the maximal quotations of control
Procedure: as §2
The analgesic activity is evaluated in rats by the test of arthritis with kaolin. Thirty minutes after intra-articular administration of an aqueous 10% suspension of kaolin, the product is administered orally at a rate of 1 ml/ 100 g (n=10 animals per dose). The results are expressed in the form of ED50, the dose in mg/kg which induces 50% decrease of the maximal quotations obtained in the control batch, calculated by linear regression.

Row | Structure (SMILES) | IC50 [1] | Selectivity COX-1/COX-2 ratio [1] | IC50 [2] | ED50 [3] | ED50 [4]
1 | COc1ccc(-n2c(-c3ccc(S(N)(=O)=O)cc3)csc2=S)cc1Cl [Example 20] | 2000 nM | 9 | 17600 nM |  | 
2 | CS(=O)(=O)c1ccc(-c2csc(=O)n2-c2ccc(Cl)cc2)cc1 [Example 46] | 570 nM | 286 | 163000 nM |  | 
3 | NS(=O)(=O)c1ccc(-c2csc(=O)n2-c2cccc(F)c2)cc1 [Example 45] | 240 nM | 1367 | 335000 nM | 2.8 mg/kg | 1.3 mg/kg
4 | NS(=O)(=O)c1ccc(-c2csc(=O)n2-c2ccc(Cl)c(Cl)c2)cc1 [Example 39] | 140 nM | 14 | 1940 nM |  | 
5 | CS(=O)(=O)c1ccc(-c2csc(=S)n2-c2cccc(Cl)c2)cc1 [Example 9] | 3340 nM | 30 | 100000 nM |  | 

Continued, in another order:

Row | IC50 [1] | Selectivity COX-1/COX-2 ratio [1] | IC50 [2] | Structure (SMILES) | ED50 [3] | ED50 [4]
6 | 650 nM | 396 | 258000 nM | NS(=O)(=O)c1ccc(-c2csc(=S)n2-c2cccc(F)c2)cc1 [Example 29] |  | 
7 | 930 nM | 34 | 32000 nM | NS(=O)(=O)c1ccc(-c2csc(=S)n2-c2ccc(F)cc2)cc1 [Example 13] |  | 
8 | 210 nM | 94 | 19800 nM | NS(=O)(=O)c1ccc(-c2csc(=S)n2-c2ccc(F)c(F)c2)cc1 [Example 30] |  | 
